Reference: ChEMBL document CHEMBL3085714 (J Med Chem, 2013)

Assays:
Homo sapiens [1] = organism: Homo sapiens; test: Selectivity for p38alpha MAP kinase (unknown origin) over ZAK (unknown origin)
Homo sapiens [2] = organism: Homo sapiens; test: Selectivity for p38alpha MAP kinase (unknown origin) over WNK2 (unknown origin)
Homo sapiens [3] = organism: Homo sapiens; test: Selectivity for p38alpha MAP kinase (unknown origin) over TGFB-R2 (unknown origin)
Homo sapiens [4] = organism: Homo sapiens; test: Selectivity for p38alpha MAP kinase (unknown origin) over STK25 (unknown origin)
Homo sapiens [5] = organism: Homo sapiens; test: Selectivity for p38alpha MAP kinase (unknown origin) over STK23 (unknown origin)
Homo sapiens [6] = organism: Homo sapiens; test: Selectivity for p38alpha MAP kinase (unknown origin) over SRPK1 (unknown origin)
Homo sapiens [7] = organism: Homo sapiens; test: Selectivity for p38alpha MAP kinase (unknown origin) over SRMS (unknown origin)
Homo sapiens [8] = organism: Homo sapiens; test: Selectivity for p38alpha MAP kinase (unknown origin) over SGK3 (unknown origin)
Homo sapiens [9] = organism: Homo sapiens; test: Selectivity for p38alpha MAP kinase (unknown origin) over RPS6KA5 (unknown origin)
Homo sapiens [10] = organism: Homo sapiens; test: Selectivity for p38alpha MAP kinase (unknown origin) over RPS6KA1 (unknown origin)
Homo sapiens [11] = organism: Homo sapiens; test: Selectivity for p38alpha MAP kinase (unknown origin) over ROS (unknown origin)
Homo sapiens [12] = organism: Homo sapiens; test: Selectivity for p38alpha MAP kinase (unknown origin) over AXL (unknown origin)
Homo sapiens [13] = organism: Homo sapiens; test: Selectivity for p38alpha MAP kinase (unknown origin) over ASK1 (unknown origin)
Homo sapiens [14] = organism: Homo sapiens; test: Selectivity for p38alpha MAP kinase (unknown origin) over ACK1 (unknown origin)
Homo sapiens [15] = organism: Homo sapiens; test: Selectivity for p38alpha MAP kinase (unknown origin) over wild-type ABL1 (unknown origin)
Homo sapiens [16] = organism: Homo sapiens; test: Selectivity for p38alpha MAP kinase (unknown origin) over ABL1 Q252H mutant (unknown origin)
Homo sapiens [17] = organism: Homo sapiens; test: Selectivity for p38alpha MAP kinase (unknown origin) over RIPK2 (unknown origin)
Homo sapiens [18] = organism: Homo sapiens; test: Selectivity for p38alpha MAP kinase (unknown origin) over PYK2 (unknown origin)
Homo sapiens [19] = organism: Homo sapiens; test: Selectivity for p38alpha MAP kinase (unknown origin) over PKC-nu (unknown origin)
Homo sapiens [20] = organism: Homo sapiens; test: Selectivity for p38alpha MAP kinase (unknown origin) over PAK1 (unknown origin)
Homo sapiens [21] = organism: Homo sapiens; test: Selectivity for p38alpha MAP kinase (unknown origin) over NEK4 (unknown origin)
Homo sapiens [22] = organism: Homo sapiens; test: Selectivity for p38alpha MAP kinase (unknown origin) over mTOR (unknown origin)
[23] = target: STE20-like serine/threonine-protein kinase (Homo sapiens) (UniProt Q9H2G2); test: Inhibition of SLK (unknown origin) at 10 uM
[24] = target: T1, Mitogen-activated protein kinase 14 (Homo sapiens, UniProt Q16539); test: Competitive inhibition of p38alpha MAP kinase (unknown origin) in presence of 100 uM ATP
[25] = target: T1, Mitogen-activated protein kinase 14; test: Inhibition of p38alpha MAP kinase in human whole blood assessed as inhibition of LPS-induced TNFalpha release by ELISA
[26] = target: Mitogen-activated protein kinase 11 (Homo sapiens) (UniProt Q15759); test: Inhibition of p38beta MAP kinase (unknown origin) at 10 uM
Homo sapiens [27] = organism: Homo sapiens; test: Selectivity for p38alpha MAP kinase (unknown origin) over MET Y1230H mutant (unknown origin)
Homo sapiens [28] = organism: Homo sapiens; test: Selectivity for p38alpha MAP kinase (unknown origin) over wild type MET (unknown origin)
Homo sapiens [29] = organism: Homo sapiens; test: Selectivity for p38alpha MAP kinase (unknown origin) over MERTK (unknown origin)
Homo sapiens [30] = organism: Homo sapiens; test: Selectivity for p38alpha MAP kinase (unknown origin) over MAP3K7/MAP3K7IP1 (unknown origin)
Homo sapiens [31] = organism: Homo sapiens; test: Selectivity for p38alpha MAP kinase (unknown origin) over IRAK4 (unknown origin)
Homo sapiens [32] = organism: Homo sapiens; test: Selectivity for p38alpha MAP kinase (unknown origin) over IKK-alpha (unknown origin)
Homo sapiens [33] = organism: Homo sapiens; test: Selectivity for p38alpha MAP kinase (unknown origin) over HCK (unknown origin)
Homo sapiens [34] = organism: Homo sapiens; test: Selectivity for p38alpha MAP kinase (unknown origin) over wild type FLT3 (unknown origin)
Homo sapiens [35] = organism: Homo sapiens; test: Selectivity for p38alpha MAP kinase (unknown origin) over FLT3 ITD (unknown origin)
Homo sapiens [36] = organism: Homo sapiens; test: Selectivity for p38alpha MAP kinase (unknown origin) over FLT3 D835Y mutant (unknown origin)
Homo sapiens [37] = organism: Homo sapiens; test: Selectivity for p38alpha MAP kinase (unknown origin) over FGR (unknown origin)
Homo sapiens [38] = organism: Homo sapiens; test: Selectivity for p38alpha MAP kinase (unknown origin) over ERBB4 (unknown origin)
Homo sapiens [39] = organism: Homo sapiens; test: Selectivity for p38alpha MAP kinase (unknown origin) over EPHB4 (unknown origin)
Homo sapiens [40] = organism: Homo sapiens; test: Selectivity for p38alpha MAP kinase (unknown origin) over EPHB2 (unknown origin)
Homo sapiens [41] = organism: Homo sapiens; test: Selectivity for p38alpha MAP kinase (unknown origin) over EPHA8 (unknown origin)
Homo sapiens [42] = organism: Homo sapiens; test: Selectivity for p38alpha MAP kinase (unknown origin) over EPHA1 (unknown origin)
Homo sapiens [43] = organism: Homo sapiens; test: Selectivity for p38alpha MAP kinase (unknown origin) over EGFR 747 to 752 deletion/P753S mutant (unknown origin)
Homo sapiens [44] = organism: Homo sapiens; test: Selectivity for p38alpha MAP kinase (unknown origin) over DNA-PK (unknown origin)
Homo sapiens [45] = organism: Homo sapiens; test: Selectivity for p38alpha MAP kinase (unknown origin) over CK1-alpha1 (unknown origin)

T1 sequence (Q16539 whole entry): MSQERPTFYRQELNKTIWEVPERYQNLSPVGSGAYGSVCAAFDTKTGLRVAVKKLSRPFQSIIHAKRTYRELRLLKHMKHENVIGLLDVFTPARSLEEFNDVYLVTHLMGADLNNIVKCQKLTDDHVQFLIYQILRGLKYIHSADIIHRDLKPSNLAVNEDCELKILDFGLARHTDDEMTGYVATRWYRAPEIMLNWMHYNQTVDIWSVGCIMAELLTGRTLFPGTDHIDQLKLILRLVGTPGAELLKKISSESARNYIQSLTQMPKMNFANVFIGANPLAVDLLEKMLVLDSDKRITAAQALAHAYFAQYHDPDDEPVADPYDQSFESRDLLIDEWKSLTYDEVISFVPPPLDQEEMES
Mitogen-activated protein kinase 11 (Homo sapiens), sequence (Q15759 whole entry): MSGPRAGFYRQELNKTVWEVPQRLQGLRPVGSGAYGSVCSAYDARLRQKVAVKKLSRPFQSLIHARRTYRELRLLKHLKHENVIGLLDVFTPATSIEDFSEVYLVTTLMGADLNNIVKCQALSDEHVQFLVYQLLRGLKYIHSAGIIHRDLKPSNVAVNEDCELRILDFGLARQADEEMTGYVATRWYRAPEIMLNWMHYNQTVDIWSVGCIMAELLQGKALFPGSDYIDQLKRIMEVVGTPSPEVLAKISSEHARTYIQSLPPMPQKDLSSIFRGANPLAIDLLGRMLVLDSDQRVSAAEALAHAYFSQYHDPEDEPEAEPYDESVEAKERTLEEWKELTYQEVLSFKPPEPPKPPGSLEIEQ
STE20-like serine/threonine-protein kinase (Homo sapiens), sequence (Q9H2G2 whole entry, looked up): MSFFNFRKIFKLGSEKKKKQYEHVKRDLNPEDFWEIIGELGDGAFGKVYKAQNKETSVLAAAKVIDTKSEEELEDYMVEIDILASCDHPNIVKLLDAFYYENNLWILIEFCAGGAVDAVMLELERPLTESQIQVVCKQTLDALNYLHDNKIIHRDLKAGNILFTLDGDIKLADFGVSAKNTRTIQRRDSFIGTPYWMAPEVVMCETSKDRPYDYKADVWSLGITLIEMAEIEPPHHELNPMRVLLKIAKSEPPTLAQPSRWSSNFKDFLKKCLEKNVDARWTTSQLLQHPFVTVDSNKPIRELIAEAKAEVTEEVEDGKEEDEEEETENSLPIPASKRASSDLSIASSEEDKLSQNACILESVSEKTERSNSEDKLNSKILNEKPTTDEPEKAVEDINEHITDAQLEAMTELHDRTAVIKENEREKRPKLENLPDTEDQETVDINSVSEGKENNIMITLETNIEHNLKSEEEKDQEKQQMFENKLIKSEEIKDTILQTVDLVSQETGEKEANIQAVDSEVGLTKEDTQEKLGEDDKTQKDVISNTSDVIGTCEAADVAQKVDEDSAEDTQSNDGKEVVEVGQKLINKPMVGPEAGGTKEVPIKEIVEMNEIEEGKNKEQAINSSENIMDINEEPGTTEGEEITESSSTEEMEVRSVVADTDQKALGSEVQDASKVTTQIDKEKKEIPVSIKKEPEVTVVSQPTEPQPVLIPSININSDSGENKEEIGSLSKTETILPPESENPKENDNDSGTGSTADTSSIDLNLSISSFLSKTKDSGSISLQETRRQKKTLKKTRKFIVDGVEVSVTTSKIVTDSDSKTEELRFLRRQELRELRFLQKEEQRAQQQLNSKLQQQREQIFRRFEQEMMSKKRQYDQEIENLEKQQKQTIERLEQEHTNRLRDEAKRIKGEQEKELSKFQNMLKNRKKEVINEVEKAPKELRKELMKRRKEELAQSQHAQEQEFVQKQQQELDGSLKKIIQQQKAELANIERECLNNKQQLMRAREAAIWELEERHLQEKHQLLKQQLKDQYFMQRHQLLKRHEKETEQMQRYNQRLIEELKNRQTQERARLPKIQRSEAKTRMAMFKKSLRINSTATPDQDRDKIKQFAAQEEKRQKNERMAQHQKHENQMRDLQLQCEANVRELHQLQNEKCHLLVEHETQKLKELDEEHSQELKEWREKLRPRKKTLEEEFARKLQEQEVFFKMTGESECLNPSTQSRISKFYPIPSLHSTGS

Selectivity ratio (Homo sapiens [1]): > 1000 | Selectivity ratio (Homo sapiens [2]): > 1000 | Selectivity ratio (Homo sapiens [3]): > 1000 | Selectivity ratio (Homo sapiens [4]): > 1000 | Selectivity ratio (Homo sapiens [5]): > 1000 | Selectivity ratio (Homo sapiens [6]): > 1000 | Selectivity ratio (Homo sapiens [7]): > 1000 | Selectivity ratio (Homo sapiens [8]): > 1000 | Selectivity ratio (Homo sapiens [9]): > 1000 | Selectivity ratio (Homo sapiens [10]): > 1000 | Selectivity ratio (Homo sapiens [11]): > 1000 | Selectivity ratio (Homo sapiens [12]): > 1000 | Selectivity ratio (Homo sapiens [13]): > 1000 | Selectivity ratio (Homo sapiens [14]): > 1000 | Selectivity ratio (Homo sapiens [15]): > 1000 | Selectivity ratio (Homo sapiens [16]): > 1000 | Selectivity ratio (Homo sapiens [17]): > 1000 | Selectivity ratio (Homo sapiens [18]): > 1000 | Selectivity ratio (Homo sapiens [19]): > 1000 | Selectivity ratio (Homo sapiens [20]): > 1000 | Selectivity ratio (Homo sapiens [21]): > 1000 | Selectivity ratio (Homo sapiens [22]): > 1000 | inhibition [23]: > 50% | IC50 [24]: 1.6 nM | IC50 [25]: 125 nM | inhibition [26]: > 50% | Selectivity ratio (Homo sapiens [27]): > 1000 | Selectivity ratio (Homo sapiens [28]): > 1000 | Selectivity ratio (Homo sapiens [29]): > 1000 | Selectivity ratio (Homo sapiens [30]): > 1000 | Selectivity ratio (Homo sapiens [31]): > 1000 | Selectivity ratio (Homo sapiens [32]): > 1000 | Selectivity ratio (Homo sapiens [33]): > 1000 | Selectivity ratio (Homo sapiens [34]): > 1000 | Selectivity ratio (Homo sapiens [35]): > 1000 | Selectivity ratio (Homo sapiens [36]): > 1000 | Selectivity ratio (Homo sapiens [37]): > 1000 | Selectivity ratio (Homo sapiens [38]): > 1000 | Selectivity ratio (Homo sapiens [39]): > 1000 | Selectivity ratio (Homo sapiens [40]): > 1000 | Selectivity ratio (Homo sapiens [41]): > 1000 | Selectivity ratio (Homo sapiens [42]): > 1000 | Selectivity ratio (Homo sapiens [43]): > 1000 | Selectivity ratio (Homo sapiens [44]): > 1000 | Selectivity ratio (Homo sapiens [45]): > 1000
SMILES: Cc1cc(F)c(NC(=O)c2ccsc2)cc1Nc1ccc2c(c1)OCc1ccc(OC[C@H](O)CO)cc1C2=O
